Laboratory results published in patent US11802111B2, “Cyclobutyl amide monoacylglycerol lipase modulators” (Janssen Pharmaceutica NV, priority 2020, dated 2023).

Target: human MGL from HeLa cells (Homo sapiens (Human), UniProt Q99685)
Test: MGL in vitro activity assay ([glycerol-1,3-3H]-oleoyl glycerol hydrolysis, activated carbon filtration)
Assay type: biochemical
Conditions: 300 nM [Glycerol-1,3-3H]-oleoyl glycerol, one hour
How it was run: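 Activity measured as tritium in the flow-through after activated carbon filtration of a 1 h reaction containing 300 nM 3H-oleoyl glycerol, compound and HeLa-derived human MGL. Compounds screened at 10 μM; IC50 series start at an empirically chosen highest concentration.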

human MGL from HeLa cells, sequence (Q99685 whole entry): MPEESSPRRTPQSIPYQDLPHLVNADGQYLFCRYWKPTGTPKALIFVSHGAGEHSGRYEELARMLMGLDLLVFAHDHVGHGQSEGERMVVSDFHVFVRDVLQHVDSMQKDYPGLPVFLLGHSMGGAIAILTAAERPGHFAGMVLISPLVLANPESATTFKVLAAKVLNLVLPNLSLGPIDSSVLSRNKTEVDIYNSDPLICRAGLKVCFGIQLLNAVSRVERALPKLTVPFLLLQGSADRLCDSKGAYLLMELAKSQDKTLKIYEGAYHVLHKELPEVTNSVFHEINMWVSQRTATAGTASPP

Compared with `COc1ccc(C2CCC3(CC2)CN(C(=O)[C@H]2C[C@@](C)(O)C2)C3)cc1C1CC1` [Example 142, (7-(3-Cyclopropyl-4-methoxyphenyl)-2-azaspiro[3.5]nonan-2-yl)((1s,3s)-3-hydroxy-3-methylcyclobutyl)methanone], `COc1ccc(C2CCC3(CC2)CN(C(=O)[C@H]2C[C@@](C)(O)C2)C3)cc1C(C)(C)C` [Example 118, (7-(3-(tert-Butyl)-4-methoxyphenyl)-2-azaspiro[3.5]nonan-2-yl)((1s,3s)-3-hydroxy-3-methylcyclobutyl)methanone] is 6-fold lower in IC50: 121 nM for the first, 20 nM for the second. The second is the more potent here.

Going from `Cc1cc(C(F)(F)F)ccc1C1CCC2(C1)CN(C(=O)[C@H]1C[C@@](C)(O)C1)C2` (mixture of isomers) [Example 8, (rac)-((1s,3s)-3-Hydroxy-3-methylcyclobutyl)(6-(2-methyl-4-(trifluoromethyl)phenyl)-2-azaspiro[3.4]octan-2-yl)methanone] to `Cc1ccc(C2CCC3(C2)CN(C(=O)[C@H]2C[C@@](C)(O)C2)C3)cc1OC(F)F` (mixture of isomers) [Example 82, (rac)-(6-(3-(Difluoromethoxy)-4-methylphenyl)-2-azaspiro[3.4]octan-2-yl)((1s,3s)-3-hydroxy-3-methylcyclobutyl)methanone], the IC50 rises from 5 nM to 31 nM (6.2-fold). The first is the more potent here.

First: Cc1cc(C)cc(C2CCC3(CC2)CN(C(=O)[C@H]2C[C@@](C)(O)C2)C3)c1 [Example 147, (7-(3,5-Dimethylphenyl)-2-azaspiro[3.5]nonan-2-yl)((1s,3s)-3-hydroxy-3-methylcyclobutyl)methanone]
Second: Cc1cc(F)cc(C2CCC3(CC2)CN(C(=O)[C@H]2C[C@@](C)(O)C2)C3)c1 [Example 352, (7-(3-Fluoro-5-methylphenyl)-2-azaspiro[3.5]nonan-2-yl)((1s,3s)-3-hydroxy-3-methylcyclobutyl)methanone]
The IC50 of the first is 3.4-fold lower: 6.4 nM for the first, 22 nM for the second.

Going from `C[C@]1(O)C[C@@H](C(=O)N2CC3(CCC(Oc4ccc(C5CC5)c(F)c4)CC3)C2)C1` [Example 415, (7-(4-Cyclopropyl-3-fluorophenoxy)-2-azaspiro[3.5]nonan-2-yl)((1s,3s)-3-hydroxy-3-methylcyclobutyl)methanone] to `Cc1ccc(OC2CCC3(CC2)CN(C(=O)[C@H]2C[C@@](C)(O)C2)C3)cc1C` [Example 405, (7-(3,4-Dimethylphenoxy)-2-azaspiro[3.5]nonan-2-yl)((1s,3s)-3-hydroxy-3-methylcyclobutyl)methanone], the IC50 rises from 3.3 nM to 32 nM (9.7-fold).

Going from `Cc1cccc(CC2CCC3(CC2)CN(C(=O)[C@H]2C[C@@](C)(O)C2)C3)c1` [Example 159, ((1s,3s)-3-Hydroxy-3-methylcyclobutyl)(7-(3-methylbenzyl)-2-azaspiro[3.5]nonan-2-yl)methanone] to `Cc1ccc(CC2CCC3(CC2)CN(C(=O)[C@H]2C[C@@](C)(O)C2)C3)cc1` [Example 397, ((1s,3s)-3-Hydroxy-3-methylcyclobutyl)(7-(4-methylbenzyl)-2-azaspiro[3.5]nonan-2-yl)methanone], the IC50 falls from 31 nM to 16 nM (1.9-fold). The second is the more potent here.

`C[C@]1(O)C[C@@H](C(=O)N2CC3(CCC(c4cccc(C5CCC5)c4)C3)C2)C1` (mixture of isomers) [Example 64, (rac)-(6-(3-Cyclobutylphenyl)-2-azaspiro[3.4]octan-2-yl)((1s,3s)-3-hydroxy-3-methylcyclobutyl)methanone] and `C[C@]1(O)C[C@@H](C(=O)N2CC3(CCC(c4ccc5c(c4)CCC5)C3)C2)C1` (mixture of isomers) [Example 16, (rac)-(6-(2,3-Dihydro-1H-inden-5-yl)-2-azaspiro[3.4]octan-2-yl)((1s,3s)-3-hydroxy-3-methylcyclobutyl)methanone] are within 1.5-fold of each other in IC50: 14 nM for the first, 10 nM for the second.

First: COc1cc(C2CCC3(C2)CN(C(=O)[C@H]2C[C@@](C)(O)C2)C3)ccc1C (mixture of isomers) [Example 17, (rac)-((1s,3s)-3-Hydroxy-3-methylcyclobutyl)(6-(3-methoxy-4-methylphenyl)-2-azaspiro[3.4]octan-2-yl)methanone]
Second: CCc1cc(C2CCC3(C2)CN(C(=O)[C@H]2C[C@@](C)(O)C2)C3)ccc1Cl (mixture of isomers) [Example 15, (rac)-(6-(4-Chloro-3-ethylphenyl)-2-azaspiro[3.4]octan-2-yl)((1s,3s)-3-hydroxy-3-methylcyclobutyl)methanone]
The IC50 of the first is 7.7-fold higher: 46 nM for the first, 6 nM for the second.

`Cn1nc(CC2CC3(C2)CN(C(=O)[C@H]2C[C@@](C)(O)C2)C3)cc1C(F)(F)F` [Example 283, ((1s,3s)-3-Hydroxy-3-methylcyclobutyl)(6-((1-methyl-5-(trifluoromethyl)-1H-pyrazol-3-yl)methyl)-2-azaspiro[3.3]heptan-2-yl)methanone] and `C[C@]1(O)C[C@@H](C(=O)N2CC3(CC(Cc4cccc(C(F)(F)F)n4)C3)C2)C1` [Example 223, ((1s,3s)-3-Hydroxy-3-methylcyclobutyl)(6-((6-(trifluoromethyl)pyridin-2-yl)methyl)-2-azaspiro[3.3]heptan-2-yl)methanone] are within 1.5-fold of each other in IC50: 116 nM for the first, 169 nM for the second.

First: Cn1cc(C2CCC3(CC2)CN(C(=O)[C@H]2C[C@@](C)(O)C2)C3)c2cccnc21 [Example 383, ((1s,3s)-3-Hydroxy-3-methylcyclobutyl)(7-(1-methyl-1H-pyrrolo[2,3-b]pyridin-3-yl)-2-azaspiro[3.5]nonan-2-yl)methanone]
Second: Cc1ccc(C2CCC3(CC2)CN(C(=O)[C@H]2C[C@@](C)(O)C2)C3)cc1 [Example 136, ((1s,3s)-3-Hydroxy-3-methylcyclobutyl)(7-(p-tolyl)-2-azaspiro[3.5]nonan-2-yl)methanone]
The IC50 of the first is 5.1-fold higher: 180 nM for the first, 35 nM for the second. The second is the more potent here.

Going from `CC(C)n1ccc2ccc(C3CCC4(CC3)CN(C(=O)[C@H]3C[C@@](C)(O)C3)C4)nc21` [Example 385, ((1s,3s)-3-Hydroxy-3-methylcyclobutyl)(7-(1-isopropyl-1H-pyrrolo[2,3-b]pyridin-6-yl)-2-azaspiro[3.5]nonan-2-yl)methanone] to `CC(C)(C)c1cccc(C2CCC3(CC2)CN(C(=O)[C@H]2C[C@@](C)(O)C2)C3)c1` [Example 135, (7-(3-(tert-Butyl)phenyl)-2-azaspiro[3.5]nonan-2-yl)((1s,3s)-3-hydroxy-3-methylcyclobutyl)methanone], the IC50 falls from 30 nM to 2.1 nM (14-fold). The second is the more potent here.

First: Cc1ccc(OC2CC3(C2)CN(C(=O)[C@H]2C[C@@](C)(O)C2)C3)cc1C(F)(F)F [Example 248, ((1s,3s)-3-Hydroxy-3-methylcyclobutyl)(6-(4-methyl-3-(trifluoromethyl)phenoxy)-2-azaspiro[3.3]heptan-2-yl)methanone]
Second: Cc1cc(OC2CC3(CCN(C(=O)[C@H]4C[C@@](C)(O)C4)CC3)C2)ccc1C(F)(F)F [Example 480, ((1s,3s)-3-Hydroxy-3-methylcyclobutyl)(2-(3-methyl-4-(trifluoromethyl)phenoxy)-7-azaspiro[3.5]nonan-7-yl)methanone]
The IC50 of the first is 20-fold higher: 114 nM for the first, 5.8 nM for the second. The second is the more potent here.

First: COc1ccc(C2CCC3(CC2)CN(C(=O)[C@H]2C[C@@](C)(O)C2)C3)cc1C(F)(F)F [Example 114, ((1s,3s)-3-Hydroxy-3-methylcyclobutyl)(7-(4-methoxy-3-(trifluoromethyl)phenyl)-2-azaspiro[3.5]nonan-2-yl)methanone]
Second: CN(C)c1cc(C2CCC3(CC2)CN(C(=O)[C@H]2C[C@@](C)(O)C2)C3)cc(C(F)(F)F)c1 [Example 123, (7-(3-(Dimethylamino)-5-(trifluoromethyl)phenyl)-2-azaspiro[3.5]nonan-2-yl)((1s,3s)-3-hydroxy-3-methylcyclobutyl)methanone]
The IC50 of the first is 2.4-fold higher: 65 nM for the first, 27 nM for the second. The second is the more potent here.

Compared with `Cc1cc(CC2CC3(C2)CN(C(=O)[C@H]2C[C@@](C)(O)C2)C3)ccc1C(F)(F)F` [Example 212, ((1s,3s)-3-Hydroxy-3-methylcyclobutyl)(6-(3-methyl-4-(trifluoromethyl)benzyl)-2-azaspiro[3.3]heptan-2-yl)methanone], `Cc1ccc(C2CC3(C2)CN(C(=O)[C@H]2C[C@@](C)(O)C2)C3)cc1OC(F)(F)F` [Example 23, ((1s,3s)-3-Hydroxy-3-methylcyclobutyl)(6-(4-methyl-3-(trifluoromethoxy)phenyl)-2-azaspiro[3.3]heptan-2-yl)methanone] is 150-fold higher in IC50: 0.3 nM for the first, 45 nM for the second.

First: Cc1cnc(OC2CCC3(CC2)CN(C(=O)[C@H]2C[C@@](C)(O)C2)C3)c(Cl)c1 [Example 436, (7-((3-Chloro-5-methylpyridin-2-yl)oxy)-2-azaspiro[3.5]nonan-2-yl)((1s,3s)-3-hydroxy-3-methylcyclobutyl)methanone]
Second: Cc1cccc(OC2CCC3(CC2)CN(C(=O)[C@H]2C[C@@](C)(O)C2)C3)c1C [Example 406, (7-(2,3-Dimethylphenoxy)-2-azaspiro[3.5]nonan-2-yl)((1s,3s)-3-hydroxy-3-methylcyclobutyl)methanone]
The IC50 of the first is 1.5-fold lower: 13 nM for the first, 20 nM for the second.

First: C[C@H](c1ccc2cnn(C)c2c1)C1CC2(C1)CN(C(=O)[C@H]1C[C@@](C)(O)C1)C2 (stereo in doubt) [Example 315, ((1s,3*R)-3-Hydroxy-3-methylcyclobutyl)(6-((*S)-1-(1-methyl-1H-indazol-6-yl)ethyl)-2-azaspiro[3.3]heptan-2-yl)methanone]
Second: CC(C)c1cccc(OC2CCC3(CC2)CN(C(=O)[C@H]2C[C@@](C)(O)C2)C3)c1 [Example 241, ((1s,3s)-3-Hydroxy-3-methylcyclobutyl)(7-(3-isopropylphenoxy)-2-azaspiro[3.5]nonan-2-yl)methanone]
The IC50 of the first is 1.7-fold higher: 45 nM for the first, 27 nM for the second. The second is the more potent here.

First: Cn1cc(F)c2ccc(OC3CCC4(CC3)CN(C(=O)[C@H]3C[C@@](C)(O)C3)C4)nc21 [Example 474, (7-((3-Fluoro-1-methyl-1H-pyrrolo[2,3-b]pyridin-6-yl)oxy)-2-azaspiro[3.5]nonan-2-yl)((1s,3s)-3-hydroxy-3-methylcyclobutyl)methanone]
Second: C[C@]1(O)C[C@@H](C(=O)N2CC3(CCC(c4cc5ccccn5n4)C3)C2)C1 (mixture of isomers) [Example 325, (rac)-((1s,3s)-3-Hydroxy-3-methylcyclobutyl)(6-(pyrazolo[1,5-c]pyridin-2-yl)-2-azaspiro[3.4]octan-2-yl)methanone]
The IC50 of the first is 63-fold lower: 5.5 nM for the first, 348 nM for the second.
